Holding throughout (experiment): relative viability (nuclei count vs DMSO), 5 days (fraction); higher = more cells survive
Compound in assay [1]: CN(c1ncccc1CNc1nc(Nc2ccc3c(c2)CC(=O)N3)ncc1C(F)(F)F)S(C)(=O)=O
The method in brief:
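Viability was read as treated-well nuclei divided by vehicle-well nuclei, using the median across plates. Lung cancer cell lines in 1536-well plates were kept overnight at 37 °C, pinned with five √10-spaced library-drug doses, and after 5 days were Hoechst-stained, imaged at 4× and counted in MetaXpress. Plates passed only with control CV below 25% and at least one doubling.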

Compound in assay [2]: CN(c1ncccc1CNc1nc(Nc2ccc3c(c2)CC(=O)N3)ncc1C(F)(F)F)S(C)(=O)=O + CC1(C)CCC(c2ccc(Cl)cc2)=C(CN2CCN(c3ccc(C(=O)NS(=O)(=O)c4ccc(N[C@H](CCN5CCOCC5)CSc5ccccc5)c(S(=O)(=O)C(F)(F)F)c4)cc3)CC2)C1 [Navitoclax] (partner 0.5 µM)
The method in brief: (§1)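 Dosing by pin tool came one day after lung cancer cell lines were seeded in 1536-well plates, using either one drug or a fixed anchor-drug dose plus five library-drug doses (not always all listed) in √10 steps. After 5 days, nuclei were counted on 4× images. Relative viability is treated-well nuclei count divided by vehicle-well nuclei count, and values are medians of duplicate plates.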

Compound in assay [3]: CN(c1ncccc1CNc1nc(Nc2ccc3c(c2)CC(=O)N3)ncc1C(F)(F)F)S(C)(=O)=O + Cc1cc(Nc2cc(N3CCN(C)CC3)nc(Sc3ccc(NC(=O)C4CC4)cc3)n2)n[nH]1 [Tozasertib] (partner 0.1 µM)
The method in brief:
as §1

Compound in assay [4]: CN(c1ncccc1CNc1nc(Nc2ccc3c(c2)CC(=O)N3)ncc1C(F)(F)F)S(C)(=O)=O + N=C(N)NC(=N)NCCc1ccccc1 [Phenformin] (partner 250 µM)
The procedure, abridged:
as §1

In the case of PC-14, the relative viability in assay [1] (0.01 µM) amounted to 1.09; in assay [1] (0.03162 µM), 1.09; in assay [1] (0.1 µM) it was 1.05; in assay [1] (0.3162 µM), 0.982; in assay [1] (1 µM), 0.963; in assay [2] (first compound 0.01 µM) it was 1.02. Besides, the relative viability in assay [2] (first compound 0.03162 µM) turned out to be 1.16; in assay [2] (first compound 0.1 µM) it was 1.03; in assay [2] (first compound 0.3162 µM), 1.01; in assay [2] (first compound 1 µM), 1.04; in assay [3] (first compound 0.01 µM), 0.531; in assay [3] (first compound 0.03162 µM) it was 0.705. For the same cell line, the relative viability came to 0.54 in assay [3] (first compound 0.1 µM); 0.59 in assay [3] (first compound 0.3162 µM); 0.52 in assay [3] (first compound 1 µM); 0.726 in assay [4] (first compound 0.01 µM); 0.59 in assay [4] (first compound 0.03162 µM); 0.563 in assay [4] (first compound 0.1 µM). Also, the relative viability in assay [4] (first compound 0.3162 µM) was found to be 0.565; in assay [4] (first compound 1 µM), 0.715.
Turning to RERF-LC-KJ, the relative viability in assay [1] (0.01 µM) is 0.986; in assay [1] (0.03162 µM), 1.16; in assay [1] (0.1 µM) it was 1.03; in assay [1] (0.3162 µM), 0.989; in assay [1] (1 µM) it was 1.01; in assay [2] (first compound 0.01 µM), 0.966. Also, the relative viability is 1.05 in assay [2] (first compound 0.03162 µM); 0.862 in assay [2] (first compound 0.1 µM); 0.956 in assay [2] (first compound 0.3162 µM); 0.693 in assay [2] (first compound 1 µM); 0.468 in assay [3] (first compound 0.01 µM); 0.466 in assay [3] (first compound 0.03162 µM). Also, the relative viability was determined as 0.467 in assay [3] (first compound 0.1 µM); 0.514 in assay [3] (first compound 0.3162 µM); 0.348 in assay [3] (first compound 1 µM); 0.409 in assay [4] (first compound 0.01 µM); 0.458 in assay [4] (first compound 0.03162 µM); 0.419 in assay [4] (first compound 0.1 µM). Besides, the relative viability was found to be 0.463 in assay [4] (first compound 0.3162 µM) and 0.412 in assay [4] (first compound 1 µM).
Consider SK-LU-1, for which the relative viability came to 1.04 in assay [1] (0.01 µM); 1.15 in assay [1] (0.03162 µM); 0.993 in assay [1] (0.1 µM); 1.02 in assay [1] (0.3162 µM); 0.908 in assay [1] (1 µM); 0.878 in assay [2] (first compound 0.01 µM). In addition, the relative viability was found to be 0.841 in assay [2] (first compound 0.03162 µM); 0.735 in assay [2] (first compound 0.1 µM); 0.766 in assay [2] (first compound 0.3162 µM); 0.768 in assay [2] (first compound 1 µM); 0.339 in assay [3] (first compound 0.01 µM); 0.308 in assay [3] (first compound 0.03162 µM). Moreover, the relative viability is 0.307 in assay [3] (first compound 0.1 µM); 0.294 in assay [3] (first compound 0.3162 µM); 0.262 in assay [3] (first compound 1 µM); 0.579 in assay [4] (first compound 0.01 µM); 0.597 in assay [4] (first compound 0.03162 µM); 0.453 in assay [4] (first compound 0.1 µM). For the same cell line, the relative viability is 0.472 in assay [4] (first compound 0.3162 µM) and 0.371 in assay [4] (first compound 1 µM).
For SK-MES-1, the relative viability in assay [1] (0.01 µM) stood at 1.01; in assay [1] (0.03162 µM) it was 1.06; in assay [1] (0.1 µM) it was 0.954; in assay [1] (0.3162 µM), 0.971; in assay [1] (1 µM), 0.832; in assay [2] (first compound 0.01 µM), 1.3. The relative viability is 1.18 in assay [2] (first compound 0.03162 µM); 1.21 in assay [2] (first compound 0.1 µM); 1.2 in assay [2] (first compound 0.3162 µM); 0.97 in assay [2] (first compound 1 µM); 0.896 in assay [3] (first compound 0.01 µM); 0.923 in assay [3] (first compound 0.03162 µM). For the same cell line, the relative viability amounted to 0.852 in assay [3] (first compound 0.1 µM); 0.836 in assay [3] (first compound 0.3162 µM); 0.47 in assay [3] (first compound 1 µM); 0.698 in assay [4] (first compound 0.01 µM); 0.63 in assay [4] (first compound 0.03162 µM); 0.658 in assay [4] (first compound 0.1 µM). In addition, the results for the relative viability in assay [4] (first compound 0.3162 µM) and in assay [4] (first compound 1 µM) were 0.596 and 0.513, respectively.
SW 1573: the relative viability stood at 0.996 in assay [1] (0.01 µM); 1.12 in assay [1] (0.03162 µM); 0.974 in assay [1] (0.1 µM); 0.922 in assay [1] (0.3162 µM); 0.944 in assay [1] (1 µM); 1.22 in assay [2] (first compound 0.01 µM). Also, the relative viability in assay [2] (first compound 0.03162 µM) stood at 0.973; in assay [2] (first compound 0.1 µM), 0.988; in assay [2] (first compound 0.3162 µM), 0.896; in assay [2] (first compound 1 µM), 1.07; in assay [3] (first compound 0.01 µM), 0.166; in assay [3] (first compound 0.03162 µM) it was 0.198. Besides, the relative viability in assay [3] (first compound 0.1 µM) amounted to 0.188; in assay [3] (first compound 0.3162 µM) it was 0.201; in assay [3] (first compound 1 µM), 0.16; in assay [4] (first compound 0.01 µM) it was 0.383; in assay [4] (first compound 0.03162 µM), 0.405; in assay [4] (first compound 0.1 µM) it was 0.381. In addition, the relative viability amounted to 0.412 in assay [4] (first compound 0.3162 µM) and 0.314 in assay [4] (first compound 1 µM).
For the cell line UMC-11, the relative viability in assay [1] (0.01 µM) was determined as 0.961; in assay [1] (0.03162 µM), 0.966; in assay [1] (0.1 µM) it was 0.993; in assay [1] (0.3162 µM), 0.963; in assay [1] (1 µM) it was 0.861; in assay [2] (first compound 0.01 µM) it was 0.321. In addition, the relative viability stood at 0.296 in assay [2] (first compound 0.03162 µM); 0.313 in assay [2] (first compound 0.1 µM); 0.297 in assay [2] (first compound 0.3162 µM); 0.235 in assay [2] (first compound 1 µM); 0.198 in assay [3] (first compound 0.01 µM); 0.184 in assay [3] (first compound 0.03162 µM). Further, the relative viability in assay [3] (first compound 0.1 µM) turned out to be 0.187; in assay [3] (first compound 0.3162 µM) it was 0.181; in assay [3] (first compound 1 µM) it was 0.206; in assay [4] (first compound 0.01 µM), 0.333; in assay [4] (first compound 0.03162 µM), 0.366; in assay [4] (first compound 0.1 µM), 0.334. Also, the relative viability in assay [4] (first compound 0.3162 µM) stood at 0.314; in assay [4] (first compound 1 µM) it was 0.262.

For the origin of these results see the supplement of paper PMC10307832.
